In patent US11458114B2, “Methods and compositions for enhancing synthesis secretion and transport of collagen to increase wound strength” (NORTH CELL PHARMACEUTICALS, INC., priority 2020, dated 2022):
Entries after “also recorded” stand apart in the source; their conditions may differ. Read-outs that look alike come from different tables or passages of the source.

Columns and labels:
[1] = tested on: tumors; assay: SRF given 1-2 hours prior to 3-bromopyruvate: tumor size; type: in vivo; conditions: 3 bromopyruvate by itself
Procedure: To date most patients with cancer that are treated with radiation or cancer drugs show a partial reduction of tumor sizes, but in most cases the cancer remains and life expectances increases for a short period of time. This is the case for tumors. Five patients with various cancers were treated with 3-Bromopyruvate, an alkylating agent and a well-known inhibitor of energy metabolism. Results to date have been mixed. The problem with most cancer drugs is not only their toxicity to noncancerous tissue, but is their inability to completely eradicate the cancer. Cancer drugs cause hypoxia in normal noncancerous cells and they destroy tissue and their ability to heal. In mice studies conducted by others, they investigated the chemo preventive activity of 3-bromopyruvate. For the topical treatment the mice were treated with 10-30 mg/5 ml daily and treated for 8 weeks. […] 3-Bromopyruvate also dissociated hexokinase II from mitochondria, reduced hexokinase activity, and blocked energy metabolism in cancer cells, finally triggered cancer cell death and induced apoptosis through caspase-3, and PARP in human lung cancer cell line. The problem with 3-bromopyruvate was its toxicity to normal cells. The formula needed to protect noncancerous cells from 3-bromopyruvate and to enhance its effect on tumors, was the addition of SRF 1-2 hours prior to the administration of the 10 mg of 3-bromopyruvate. […]

[2] = tested on: wounds; assay: Various drugs administered on wounds with or without sodium pyruvate or SRF: erythema rating and days to total re-epithelization; conditions: for Drugs in commercial formula with SRF erythema / Drugs in commercial formula with sodium pyruvate only erythema / Drugs in commercial formula erythema: Rating 1-10, 1 most erythema, 10 no erythema; for Drugs in commercial formula erythema / Drug in commercial formula Days to healing: drug alone; for Drug in commercial formula with SRF. Days to healing / Drug in commercial formula with sodium pyruvate only. Days to healing / Drug in commercial formula Days to healing: days to total re-epithelization
Procedure: (§1) All previous studies using pyruvate to treat wounds or be used as an antioxidant used only the sodium salt form of pyruvic acid. The drug products that were tested in previous studies used 1-3% sodium pyruvate and other sodium salts of alpha keto acids by weight 1-3% concentrations in the lotions and triple antibiotic formulations. […]

[3] = tested on: virally infected cells; assay: Viral plaque formation in virally infected cells; type: cell-based
Text: A commercial cold sore formula was purchased and the enumerated keto acids were placed into it to treat cold sores, both as a combination and singly as well. The commercial formulation by itself was utilized as a control. […] However, when SRF was placed in the cold sore formulation both with and without anti-oxidants and fatty acids, they heal the cold sore at a much faster rate 10-40% when tested on a cold sore sufferer The same experiment was done with virally infected cells and the combination of pyruvate and α-Ketoisovalerate with SRF decreased viral plaque formation by 50%. Viral plaques are a direct measure of viral numbers in infected cells. […] Other antivirals were evaluated with SRF to determine if the addition of SRF could reduce the skin irritation produced by Foscarnet sodium, Ribavirin, imiquimod, vidarabine, ganciclovir sodium, zidovudine, phenol, amantadine hydrochloride, and interferon. alpha.-n3. Even though some of these anti virals are not effective against a cold sore, they were evaluated on human cold sores to determine if SRF could reduce the irritation and enhance healing at the infection site. All formula with SRF healed cold sore two days faster than non-treatments and when this formula was combined with antiviral, like acyclovir or docosonal, the viral lesions healed 1.5 days faster than the commercial antiviral agent alone (Abreva or acyclovir). […]

[4] = tested on: HSV-1 or 2; assay: Viral plaques in virally infected cells, HSV; type: cell-based
Text: Results: The primary end points were the levels of IL-8 and IL-1 after treatment with an immunostimulators, and SRF. […] IL-8 activates neutrophils to increase their numbers at the infected site. […] IL-1 increases inflammation and decreases healing times. […] The same experiment was done with virally infected cells and the SRF in combination with immunostimulators decreased viral plaque formed by HSV-1 or 2 by 70% and HPV-18 decreased by 82%. Viral plaques are a direct measure of viral numbers in infected cells.

[5] = tested on: cultured human dermal fibroblasts; assay: Procollagen production in cultured human dermal fibroblasts (ELISA); type: cell-based
[6] = tested on: Doxorubicin treated wounded hairless rats; assay: Rat wound strength healing study, doxorubicin-impaired wounds; type: in vivo; conditions: for Days to healing: Doxorubicin treated wounded hairless rats, topical, 2% pyruvate salts, 1% L proline, 1% L-citrulline; for Percentage of wound breaking strength, by day 21: compared to non-wounded normal skin (100%)
Procedure: Wound breaking strength is a measurement of wound strength after injury compared to normal noninjuried skin. Fourteen groups of five rats each were studied. The SRF was administered topically daily. All groups were wounded at postoperative day 0, at which time Doxo was given to all Groups. All wounds were harvested at POD 21, and the mean wound breaking strength (WBS) of each group was obtained using an Instron Tensiometer.

[7] = tested on: HPV 16 or 18; assay: Viral plaque reduction, patients with vaginal HPV treated with SRF cream containing imiquimod; conditions: human, in vivo
Procedure: Percentage of Viral Plaque Reduction in Virally Infected Cells in Humans
A total of 15 patients with vaginal HPV 16 or 18 were treated with the SRF cream that also contained imiquimod. […] SRF reduces viral plaques in virally infected cells by 22-34%. Unexpectedly, the combination of SRF and Imiquimod produced the best results, by reducing the viral plaques over 92%, eliminating the virus from most of the infected cells. This tissue culture data along with data from humans, confirms that this combination worked.

[8] = tested on: laser wounds on the left arm; assay: Pigmentation study on laser wounds; type: in vivo; conditions: range 1-10, 10 totally normal
Text: Six laser wounds were made on the left arm. As an example, Mupirocin was placed on the first wound site, Mupirocin plus sodium pyruvate was placed on the second wound site and Mupirocin with SRF was placed on third wound site. The same process was repeated with another drug for sites 4-6. Every two days the bandages coated with the drugs were removed and replaced five times. Pigmentation measurements range from 1-10 with 10 being totally normal. The mupirocin drug formulas averaged a 4.9 for pigmentation. […]. The addition of the SRF averaged 7.45 a […] increase in pigmentation.

[9] = tested on: UVB-induced wrinkle formation; assay: Topical alpha-ketoglutarate on UVB-induced wrinkle formation; type: in vivo, human; conditions: 1% topical, 6 weeks
[10] = tested on: skin laser wounds in patients; assay: Salts of pyruvate and SRF on skin laser wounds in patients: healing and irritation
Procedure: as §1

[11] = tested on: cold sores; assay: Cold sore treatment, 15 subjects; conditions: human, in vivo
[12] = tested on: non-cancerous cells; assay: Viable non-cancerous cells after incubation with anticancer drugs in various media; type: cell-based
[13] = tested on: wounded hairless Rats; assay: Nitric oxide production and days to healing in wounded hairless rats; type: in vivo, rat; conditions: topical
[14] = Amount of salts delivered in the pyruvate formulations compared to amounts in human blood; conditions: amount delivered in the pyruvate formulation
[15] = same concentration of pyruvate for each salt, compared with sodium pyruvate formulations or base

O=C(O)C(=O)CBr [3-bromopyruvate]
reduction of tumor sizes [1]: 60%

Nc1nc2c(ncn2COCCO)c(=O)[nH]1 [Acyclovir]
Drugs in commercial formula with SRF erythema [2]: 7
Drugs in commercial formula with sodium pyruvate only erythema [2]: 5
Drugs in commercial formula erythema [2]: 4
Drug in commercial formula with SRF. Days to healing [2]: 10 days
Drug in commercial formula with sodium pyruvate only. Days to healing [2]: 13 days
Drug in commercial formula Days to healing [2]: 18 days
decrease of viral plaque formation [3]: 60%
decreased viral HSV plaques [4]: 60%

O=C(O)[C@@H]1CCCN1C(=O)OCc1ccccc1 [Cbz-Pro, N-benzyloxycarbonyl-L-proline]
procollagen synthesis by alpha-ketoglutarate ([5]; prolidase inhibitor added): inhibited procollagen synthesis

COc1cccc2c1C(=O)c1c(O)c3c(c(O)c1C2=O)C[C@@](O)(C(=O)CO)C[C@@H]3O[C@H]1C[C@H](N)[C@H](O)[C@H](C)O1 [Doxorubicin]
impaired normal wound strength by ([6]; Doxo 6 mg/kg i.v., POD 21): 40%

CC(C)Cn1cnc2c(N)nc3ccccc3c21 [Imiquimod]
reduction of viral plaques in virally infected cells [7]: 25-40%

C/C(=C\C(=O)OCCCCCCCCC(=O)O)C[C@@H]1OC[C@H](C[C@@H]2O[C@H]2[C@@H](C)[C@H](C)O)[C@@H](O)[C@H]1O [Mupirocin]
Drugs in commercial formula with SRF erythema [2]: 8
Drugs in commercial formula with sodium pyruvate only erythema [2]: 6
Drugs in commercial formula erythema [2]: 4
Drug in commercial formula with SRF. Days to healing [2]: 11 days
Drug in commercial formula with sodium pyruvate only. Days to healing [2]: 15 days
Drug in commercial formula Days to healing [2]: 20 days
Pigmentation measurement [8]: 4.9

O=C(O)CCC(=O)C(=O)O [alpha-ketoglutarate]
stimulated procollagen production ([5]; 10 microM, compared to vehicle (dH(2)O)-treated control cells): 25.6+/−4.6%
activities of prolidase ([5]; fibroblasts): increased
wrinkle formation [9]: decreased wrinkle formation

CC(=O)C(=O)O.N [ammonium pyruvate]
irritation or toxicity ([10]; human, in vivo): irritating and possibly toxic
wound healing results [10, 15]: slight increases in healing; also recorded: did not produce increases in healing over the base

CCCCCCCCCCCCCCCCCCCCCCO [docosonal]
cold sore efficacy, lesion healing [11]: better efficacy with the addition of SRF

CC(=O)C(=O)[O-].[Li+] [lithium pyruvate]
irritation or toxicity ([10]; human, in vivo): irritating and possibly toxic
wound healing results [10, 15]: slight increases in healing; also recorded: did not produce increases in healing over the base

O=C1[O][Pt]2([NH][C@@H]3CCCC[C@H]3[NH]2)[O]C1=O [oxaliplatin]
Percentage of viable cells, Drugs in commercial formula [12]: 24%
Percentage of viable cells, Drugs in commercial formula sodium pyruvate without SRF [12]: 41%
Percentage of viable cells, Drugs in commercial formula with SRF [12]: 95%
Percentage of viable cells after incubation with drugs ([12]; drug): 23%
Percentage of viable cells, Drugs in commercial formula with SRF repeat study ([12]; repeat study): 98%

Oc1ccccc1 [phenol]
cold sore efficacy, lesion healing [11]: did not work very well

CC(=O)C(=O)[O-].[Na+] [sodium salt of pyruvic acid, sodium pyruvate]
irritation or toxicity ([10]; human, in vivo): no irritation
wound healing results [10, 15]: enhanced healing

Bevacizumab
Percentage of viable cells after incubation with drugs [12]: 21%
Percentage of viable cells, Drugs in commercial formula [12]: 27%
Percentage of viable cells, Drugs in commercial formula sodium pyruvate without SRF [12]: 40%
Percentage of viable cells, Drugs in commercial formula with SRF repeat study [12]: 87%

Bleomycin
Percentage of viable cells, Drugs in commercial formula [12]: 33%
Percentage of viable cells, Drugs in commercial formula sodium pyruvate without SRF [12]: 47%
Percentage of viable cells, Drugs in commercial formula with SRF [12]: 98%
Percentage of viable cells after incubation with drugs ([12]; drug): 31%
Percentage of viable cells, Drugs in commercial formula with SRF repeat study ([12]; repeat study): 98%

Calcium pyruvate
Days to healing [6]: 14 days
Percentage of wound breaking strength, by day 21 [6]: 42%
% of NO levels against normal nonwounded skin [13]: 22%
Days to healing [13]: 15 days

Magnesium pyruvate
Days to healing [6]: 14 days
Percentage of wound breaking strength, by day 21 [6]: 44%
wound healing results ([10]; human, in vivo): slight increases in healing; also recorded: did not produce increases in healing over the base
% of NO levels against normal nonwounded skin [13]: 36%
Days to healing [13]: 13 days

aluminum pyruvate
wound healing results [10, 15]: slight increases in healing; also recorded: did not produce increases in healing over the base

manganese pyruvate
wound healing results [10, 15]: slight increases in healing; also recorded: did not produce increases in healing over the base

zinc pyruvate
wound healing results [10, 15]: slight increases in healing; also recorded: did not produce increases in healing over the base
irritation or toxicity ([10]; skin): irritating and possibly toxic
delivered salt relative to blood levels [14]: 840 × blood levels
